Measured values reported in patent US20160129011A1, “BICYCLO 2,3-BENZODIAZEPINES AND SPIROCYCLICALLY SUBSTITUTED 2,3-BENZODIAZEPINES” (BAYER PHARMA AKTIENGESELLSCHAFT, priority 2013, published 2016).

Tests used:
BRD4 (BD1) = target: T1, BRD4 (BD1) (Homo sapiens, UniProt O60885); test: Binding assay BRD4/acetylated peptide H4 (TR-FRET protein-protein interaction assay); settings: BRD4 (BD1) / acetylated histone H4 peptide
T1 construct: longer constructs also being possible, preferably amino acids 44-168; made in house; host or cells: E. coli
From the text: To assess the BRD4 binding strength of the substances described in this application, the ability thereof to inhibit the interaction between BRD4 (BD1) and acetylated histone H4 in a dose-dependent manner was quantified.
For this purpose, a time-resolved fluorescence resonance energy transfer (TR-FRET) assay was used, which measures the binding between N-terminally His6-tagged BRD4 (BD1) (amino acids 67-152, longer constructs also being possible, preferably amino acids 44-168) and a synthetic acetylated histone H4 (Ac—H4) peptide with sequence GRGK(Ac)GGK(Ac)GLGK(Ac)GGAK(Ac)RHGSGSK-biotin. The recombinant BRD4 protein produced in-house according to Filippakopoulos et al., Nature, 2010, 468:1119-1123 was expressed in E. coli and purified by means of (Ni-NTA) affinity and (Sephadex G-75) size exclusion chromatography. The Ac—H4 peptide can be purchased, for example, from Biosyntan (Berlin, Germany).
In the assay, typically 11 different concentrations of each substance (0.1 nM, 0.33 nM, 1.1 nM, 3.8 nM, 13 nM, 44 nM, 0.15 μM, 0.51 μM, 1.7 μM, 5.9 μM and 20 μM) were analysed as duplicates on the same microtitre plate. For this purpose, 100-fold concentrated solutions in DMSO were prepared by serial dilutions (1:3.4) of a 2 mM stock solution into a clear, 384-well microtitre plate (Greiner Bio-One, Frickenhausen, Germany). From this, 50 nl were transferred into a black test plate (Greiner Bio-One, Frickenhausen, Germany). The test was started by the addition of 2 μl of a 2.5-fold concentrated BRD4 solution (final concentration typically 10 nM in the 5 μl of reaction volume) in aqueous assay buffer [50 mM HEPES pH 7.5, 50 mM sodium chloride (NaCl), 0.25 mM CHAPS and 0.05% serum albumin (BSA)] to the substances in the test plate. This was followed by a 10-minute incubation step at 22° C. for the pre-equilibration of putative complexes between BRD4 and the substances.
The mixture was then incubated in the dark at 22° C. for one hour and then at 4° C. for at least 3 hours and for no longer than overnight. The formation of BRD4/Ac—H4 complexes was determined by the measurement of the resonance energy transfer from the streptavidin-Eu cryptate to the anti-6His-XL665 antibody present in the reaction. For this purpose, the fluorescence emission was measured at 620 nm and 665 nm after excitation at 330-350 nm in a TR-FRET measuring instrument, for example a Rubystar or Pherastar (both from BMG Lab Technologies, Offenburg, Germany) or a Viewlux (Perkin-Elmer). The ratio of the emissions at 665 nm and at […] was taken as an indicator of the amount of BRD4/Ac—H4 complexes formed.
The data (ratios) obtained were normalized, with 0% inhibition corresponding to the mean from the measurements for a set of controls (typically 32 data points) in which all the reagents were present. In these, in place of test substances, 50 nl of DMSO (100%) were used. Inhibition of 100% corresponded to the mean from the measurements for a set of controls (typically 32 data points) in which all the reagents except BRD4 were present. The IC50 was determined by regression analysis based on a 4-parameter equation (minimum, maximum, IC50, Hill; Y=max+(min−max)/(1+(X/IC50)^Hill)).

MOLM-13 cells = test: Cell proliferation assay (alamarBlue), MOLM-13; assay type: cell-based; settings: Homo sapiens, MOLM-13; acute myeloid leukaemia cell line, 96 h incubation
Procedure: (§1) In accordance with the invention, the ability of the substances to inhibit cell proliferation was determined. Cell viability was determined by means of the alamarBlue® reagent (Invitrogen) in a Victor X3 Multilabel Reader (Perkin Elmer). The excitation wavelength was 530 nm and the emission wavelength […].
The MOLM-13 cells (DSMZ, ACC 554) were sown at a concentration of 4000 cells/well in 100 μl of growth medium (RPMI1640, 10% FCS) on 96-well microtitre plates.
(§2) The MDA-MB-231 cells (DSMZ, ACC 732) were sown at a concentration of 4000 cells/well in 100 μl of growth medium (DMEM/Ham's F12 medium, 10% FCS) on 96-well microtitre plates. After overnight incubation at 37° C., the fluorescence values (CI values) were determined. Then the plates were treated with various substance dilutions (1E-5 M, 3E-6 M, 1E-6 M, 3E-7 M, 1E-7 M, 3E-8 M, 1E-8 M) and incubated at 37° C. for 72 (MV4-11, LOX-IMVI cells), 96 (MOLM-13, B16F10, […] cells), 120 (MOLP-8, KMS-12-PE cells) or 168 (LAPC-4 cells) hours. Subsequently, the fluorescence values were determined (CO values). For the data analysis, the CI values were subtracted from the CO values and the results were compared between cells which had been treated with various dilutions of the substance or only with buffer solution. This was used to calculate the IC50 values (substance concentration required for 50% inhibition of cell proliferation).
(§3) The substances were examined in the cell lines of Table 1 which, in an exemplary manner, represent the stated indications: […]

B16F10 cells = test: Cell proliferation assay (alamarBlue), B16F10; assay type: cell-based; settings: Mus musculus, B16-F10; melanoma (BRAF wild-type) cell line, 96 h incubation
Procedure: as §1
The B16F10 cells (ATCC, CRL-6475) were sown at a concentration of 300-500 cells/well in 100 μl of growth medium (DMEM with phenol red, 10% FCS) on 96-well microtitre plates.
as §2, §3

MOLP-8 cells = test: Cell proliferation assay (alamarBlue), MOLP-8; assay type: cell-based; settings: Homo sapiens, MOLP-8; multiple myeloma cell line, 120 h incubation
Procedure: as §1
The MOLP-8 cells (DSMZ, ACC 569) were sown at a concentration of 4000 cells/well in 100 μl of growth medium (RPMI1640, 20% FCS) on 96-well microtitre plates.
as §2, §3

IC50 (BRD4 (BD1)) [nM] | IC50 (MOLM-13 cells) [nM] | IC50 (B16F10 cells) [nM] | Compound | IC50 (MOLP-8 cells) [nM]
50 | 220 | 100 | CNC(=O)N1N=C(c2ccc(N3CCC4(COC4)C3)cc2)c2cc(OC)c(OC)cc2CC1C (racemic) [Example 29, (±)-7,8-dimethoxy-N,4-dimethyl-1-[4-(2-oxa-6-azaspiro[3.4]oct-6-yl)phenyl]-4,5-dihydro-3H-2,3-benzodiazepine-3-carboxamide] | 90
170 | 420 | 420 | CNC(=O)N1N=C(c2ccc(N3CC4(CCC4)C3)cc2)c2cc(OC)c(OC)cc2CC1C (racemic) [Example 37, (±)-1-[4-(2-Azaspiro[3.3]hept-2-yl)phenyl]-7,8-dimethoxy-N,4-dimethyl-4,5-dihydro-3H-2,3-benzodiazepine-3-carboxamide] | 450
430 | 1140 | 1470 | CNC(=O)N1N=C(c2ccc(F)c(N3C[C@@H]4C[C@H]3CN4C)c2)c2cc(OC)c(OC)cc2CC1C (relative stereo) [Example 41, [1S-(1R*,4R*)]-1-[4-fluoro-3-(5-methyl-2,5-diazabicyclo[2.2.1]hept-2-yl)phenyl]-7,8-dimethoxy-4,5-dihydro-N,4-dimethyl-3H-2,3-benzodiazepine-3-carboxamide] | 690
250 | 600 | 590 | CNC(=O)N1N=C(c2ccc(F)c(N3CC4(CCS4(=O)=O)C3)c2)c2cc(OC)c(OC)cc2CC1C (racemic) [Example 15, (±)-1-[3-(1,1-dioxido-1-thia-6-azaspiro[3.3]hept-6-yl)-4-fluorophenyl]-7,8-dimethoxy-N,4-dimethyl-4,5-dihydro-3H-2,3-benzodiazepine-3-carboxamide] | 480
180 | 390 | 450 | CNC(=O)N1N=C(c2ccc(N3C[C@@H]4C[C@H]3CN4C)cc2)c2cc(OC)c(OC)cc2CC1C (relative stereo) [Example 40, [1S-(1R*,4R*)]-7,8-Dimethoxy-N,4-dimethyl-1-[4-(5-methyl-2,5-diazabicyclo[2.2.1]hept-2-yl)phenyl]-4,5-dihydro-3H-2,3-benzodiazepine-3-carboxamide] | 240
410 | 1070 | 1430 | CNC(=O)N1N=C(c2ccc(F)c(N3C[C@@H]4C[C@H]3CN4)c2)c2cc(OC)c(OC)cc2CC1C (relative stereo) [Example 20, [1S-(1R*,4R*)]-1-[3-(2,5-diazabicyclo[2.2.1]hept-2-yl)-4-fluorophenyl]-7,8-dimethoxy-4,5-dihydro-N,4-dimethyl-3H-2,3-benzodiazepine-3-carboxamide] | 770
70 | 200 |  | CNC(=O)N1N=C(c2ccc(N3CCN4CCCC4C3)cc2)c2cc(OC)c(OC)cc2CC1C (racemic) [Example 30, (±)-1-[4-(hexahydropyrrolo[1,2-a]pyrazin-2(1H)-yl)phenyl]-7,8-dimethoxy-N,4-dimethyl-4,5-dihydro-3H-2,3-benzodiazepine-3-carboxamide] | 90

Second part, the compound before the results:

Compound | IC50 (BRD4 (BD1)) [nM] | IC50 (MOLM-13 cells) [nM] | IC50 (B16F10 cells) [nM] | IC50 (MOLP-8 cells) [nM]
CNC(=O)N1N=C(c2ccc(N3CCC4(CCCC4)CC3)cc2)c2cc(OC)c(OC)cc2CC1C (racemic) [Example 9, (±)-1-[4-(8-azaspiro[4.5]dec-8-yl)phenyl]-7,8-dimethoxy-N,4-dimethyl-4,5-dihydro-3H-2,3-benzodiazepine-3-carboxamide] | 250 | 500 | 140 | 460
CNC(=O)N1N=C(c2ccc(-c3ccc4c(c3)OCO4)cc2)c2cc(OC)c(OC)cc2CC1C (racemic) [Example 27, (±)-1-[4-(1,3-benzodioxol-5-yl)phenyl]-7,8-dimethoxy-N,4-dimethyl-4,5-dihydro-3H-2,3-benzodiazepine-3-carboxamide] | 110 | 480 | 350 | 460
CNC(=O)N1N=C(c2ccc(N3CC4(CCS4(=O)=O)C3)cc2)c2cc(OC(F)(F)F)ccc2C[C@@H]1C [Example 18.2, (4S)-1-[4-(1,1-dioxido-1-thia-6-azaspiro[3.3]hept-6-yl)phenyl]-N,4-dimethyl-8-(trifluoromethoxy)-4,5-dihydro-3H-2,3-benzodiazepine-3-carboxamide] | 10 | 30 | 30 | 30
CNC(=O)N1N=C(c2ccc(N3CCC4(CC3)COC4)cc2)c2cc(OC)c(OC)cc2CC1C (racemic) [Example 12, (±)-7,8-dimethoxy-N,4-dimethyl-1-[4-(2-oxa-7-azaspiro[3.5]non-7-yl)phenyl]-4,5-dihydro-3H-2,3-benzodiazepine-3-carboxamide] | 80 | 220 | 170 | 140
CNC(=O)N1N=C(c2ccc(N3CC4(CCS4(=O)=O)C3)cc2)c2cc(OC(F)(F)F)ccc2CC1C (racemic) [Example 18, (±)-1-[4-(1,1-dioxido-1-thia-6-azaspiro[3.3]hept-6-yl)phenyl]-N,4-dimethyl-8-(trifluoromethoxy)-4,5-dihydro-3H-2,3-benzodiazepine-3-carboxamide] | 40 | 70 | 60 | 60
CNC(=O)N1N=C(c2ccc(N3CC4(CCS4(=O)=O)C3)cc2)c2cc(-n3nc(C)cc3C)ccc2C[C@H]1C [Example 17.1, (4R)-8-(3,5-Dimethyl-1H-pyrazol-1-yl)-1-[4-(1,1-dioxido-1-thia-6-azaspiro[3.3]hept-6-yl)phenyl]-N,4-dimethyl-4,5-dihydro-3H-2,3-benzodiazepine-3-carboxamide] | 1470 | 6740 | 5590 | 4320
